In patent US6818235B2, “Beneficial control of energy balance in periparturient cattle” (Church & Dwight Co., Inc., priority 2001, dated 2004):

How the values were obtained:
Type in all cases: in vivo
Holstein cows [1] = assay: Milk production and composition of postpartum cows fed CLA amide supplements
Excerpt: (§1) One hundred and twenty Holstein cows who were to begin their second or greater lactation are randomly selected to receive one of four Conjugated Linoleic Acid (CLA) supplementation regimens. Control cows receive no supplemental CLA (0 CLA), cows offered Treatment 1 receive the cis-9, trans-11 CLA isomer (9, 11 CLA), cows offered Treatment 2 receive the trans-10, cis-12 CLA isomer (10, 12 CLA) and cows offered Treatment 3 receive both isomers in a 50:50 mix (mixed CLA).
(§2) Isomers of CLA are obtained at 85% purity and are converted to their amide form (unsubstituted) for a rumen bypass rate of 65%. The remaining 15% of the 85% pure CLA isomers are the other isomers of CLA. Treatments 1 and 2 are formulated to deliver 7 grams of each CLA isomer per cow/day at the intestinal level. Therefore, 13 g/cow/day of the respective CLA amides are included in the daily rations offered as Total Mixed Rations (TMR) (i.e., 13 g CLA amide×85% purity×65% rumen bypass=7.18 g intestinal CLA isomer). Treatment 3 is formulated to deliver 7 grams of both isomers per cow per day in the intestine resulting in a 26 g supplement.
Cows are fed their CLA treatments beginning 7 days prepartum and remain on the supplement until 35 days postpartum. To maintain the diets isoenergetic with equal amounts of added fat to the diets, the CLA amides are substituted for Megalac (calcium salts of palm fatty acids). Postpartum diets are offered immediately postpartum.
Prepartum diets are formulated to meet or exceed NRC (2000) requirements at a daily intake of 10.6 kg of DM. This is done to assure that all feed is consumed in a 24-hour period. Postpartum diets are also formulated to meet or exceed requirements for a cow producing (ca.) 45 kg of milk daily at ad libitum consumption of DM.
Cows are milked four times per day to assure maximum expression of production potential and are housed and fed in individual tie-stalls to obtain individual estimates of DMI.
(§3) Other measurements include: Start-up milk production (defined as colostrum milk secreted in the first 24 hours postpartum) analyzed for milk fat and fatty acid composition; Daily milk production and composition (total fat and protein); Daily dry matter intake (DMI); Calculated net energy balance defined as net energy intake minus net energy secreted in milk expressed in megacalories (Mcal) per day.

Holstein cows [2] = assay: Calculated net energy balance (net energy intake minus net energy secreted in milk)
Excerpt: as §1
Isomers of CLA are obtained at 85% purity and are converted to their amide form (unsubstituted) for a rumen bypass rate of 65%. The remaining 15% of the 85% pure CLA isomers are the other isomers of CLA. Treatments 1 and 2 are formulated to deliver 7 grams of each CLA isomer per cow/day at the intestinal level. […]
as §3
Calculated average energy balance postpartum is actual daily […] minus actual daily milk energy outputs.

[3] = tested on: mammary glands of Holstein cows; assay: Mammary gland total parenchymal DNA and RNA-to-DNA ratio at day 15 postpartum; conditions: excised mammary glands, five cows per treatment
Excerpt: as §1, §2
Cows are fed their CLA treatments beginning 7 days prepartum and remain on the supplement until 35 days postpartum. To maintain the diets isoenergetic with equal amounts of added fat to the diets, the CLA amides are substituted for Megalac (calcium salts of palm fatty acids). […]

[4] = average for the next 34 days postpartum
[5] = colostrum, first 24 hours postpartum

For `CCCCCC/C=C/C=C\CCCCCCCC(=O)O` [9, 11 CLA, cis-9, trans-11 conjugated linoleic acid], the “FCM (fat corrected milk, 4% fat)” value (Holstein cows [1]; [4]) was 36.88a kg/d, the Milk (Holstein cows [1]; [4]) was 40.2a kg/d and the Milk fat (Holstein cows [1]; [4]) was 1.04a kg/d. The Milk fat % (Holstein cows [1]; [4]) was 3.45a %, the “SCFA + MCFA:LCFA (ratio of short plus medium chain to long chain fatty acids in milk fat)” value (Holstein cows [1]; [4]) was 58.42b and the “Startup milk fat %” value (Holstein cows [1]; [5]) was 8.9c %. The “Startup milk fat kg” value (Holstein cows [1]; [5]) was 1.44b kg, the Startup milk (Holstein cows [1]; colostrum, first 24 hours postpartum, 7 g of each CLA isomer/cow/day at intestinal level) was 20.2a kg and the “Startup FCM (fat corrected milk, 4% fat)” value (Holstein cows [1]; first 24 hours postpartum) was 35.05c kg. For the same molecule, the “Calculated average energy blance postpartum” value (Holstein cows [2]; [4]) was −1.1c Mcal/d, the “Calculated energy balance at the end of day-1 postpartum” value (Holstein cows [2]; end of day-1 postpartum) was −3.6b Mcal and the “Total parenchymal DNA, lower compared to 0 CLA group” value [3] was 18%.
